{
  "source": "paper PMC8131106",
  "about": "(eLife, 2021)",
  "molecules": {"B1": {"name": "hDAT (Homo sapiens) (protein)", "chain": "MSKSKCSVGLMSSVVAPAKEPNAVGPKEVELILVKEQNGVQLTSSTLTNPRQSPVEAQDRETWGKKIDFLLSVIGFAVDLANVWRFPYLCYKNGGGAFLVPYLLFMVIAGMPLFYMELALGQFNREGAAGVWKICPILKGVGFTVILISLYVGFFYNVIIAWALHYLFSSFTTELPWIHCNNSWNSPNCSDAHPGDSSGDSSGLNDTFGTTPAAEYFERGVLHLHQSHGIDDLGPPRWQLTACLVLVIVLLYFSLWKGVKTSGKVVWITATMPYVVLTALLLRGVTLPGAIDGIRAYLSVDFYRLCEASVWIDAATQVCFSLGVGFGVLIAFSSYNKFTNNCYRDAIVTTSINSLTSFSSGFVVFSFLGYMAQKHSVPIGDVAKDGPGLIFIIYPEAIATLPLSSAWAVVFFIMLLTLGIDSAMGGMESVITGLIDEFQLLHRHRELFTLFIVLATFLLSLFCVTNGGIYVFTLLDHFAAGTSILFGVLIEAIGVAWFYGVGQFSDDIQQMTGQRPSLYWRLCWKLVSPCFLLFVVVVSIVTFRPPHYGAYIFPDWANALGWVIATSSMAMVPIYAAYKFCSLPGSFREKLAYAIAPEKDRELVDRGEVRQFTLRHWLKV"}, "B2": {"name": "hDAT (Homo sapiens; R445C) (protein)", "chain": "B1 chain with R445C"}},
  "key": {"LeuT [1]": {"biological_target": "T1, LeuT (Aquifex aeolicus, UniProt O67854, R375D, form not given)", "T1 construct": "gene snf; pET16b, C-terminal 8xHis tag removed with thrombin, expressed in E. coli C41/C43(DE3), purified in DDM then OG; Cys pairs with spin labels for DEER", "assay": "DEER EPR distance distributions", "format": "binding", "details": "[…] NaCl, fourfold molar excess of Leu; each spin-label pair in its own construct (pair also printed as […])"}, "LeuT [2]": {"biological_target": "T2, LeuT (Aquifex aeolicus, UniProt O67854, H7C/R86C/A309C, form not given)", "T2 construct": "gene snf; pET16b, C-terminal 8xHis tag removed with thrombin, expressed in E. coli C41/C43(DE3), purified in DDM then OG; Cys pairs with spin labels for DEER", "assay": "DEER EPR distance distributions", "format": "binding", "details": "[…] NaCl, fourfold molar excess of Leu; each spin-label pair in its own construct (pair also printed as […])"}, "dDAT": {"biological_target": "T3, dDAT (Drosophila melanogaster, UniProt Q7K4Y6)", "T3 construct": "gene DAT", "details": "[…] min, room temperature, labelled compound"}, "LeuT [3]": {"biological_target": "T4, LeuT (Aquifex aeolicus, UniProt O67854)", "T4 construct": "gene snf; pET16b, C-terminal 8xHis tag removed with thrombin, expressed in E. coli C41/C43(DE3), purified in DDM then OG; Cys pairs with spin labels for DEER", "assay": "X-ray crystal structure, […] A", "format": "binding", "details": "Na+ bound, outward-facing occluded"}, "LeuT [4]": {"biological_target": "T5, LeuT (Aquifex aeolicus, UniProt O67854, R375A)", "T5 construct": "gene snf; pET16b, C-terminal 8xHis tag removed with thrombin, expressed in E. coli C41/C43(DE3), purified in DDM then OG; Cys pairs with spin labels for DEER", "assay": "X-ray crystal structure, […] A", "format": "binding", "details": "Na+ bound, outward-facing occluded"}, "LeuT [5]": {"biological_target": "T6, LeuT (Aquifex aeolicus, UniProt O67854, R375D)", "T6 construct": "gene snf; pET16b, C-terminal 8xHis tag removed with thrombin, expressed in E. coli C41/C43(DE3), purified in DDM then OG; Cys pairs with spin labels for DEER", "assay": "X-ray crystal structure, […] A", "format": "binding", "details": "Na+ bound, outward-facing occluded"}, "[6]": {"substrate": "NCCc1ccc(O)c(O)c1", "assay": "cells, lysate or membranes", "details": "pH […]-7.[…] min, […] DA, labelled compound"}},
  "note": "Where a chain is given by its changes, count along the chain named. In names and notes the source's numbering stands.",
  "data": [
    {"molecule": "CC(C)C[C@H](N)C(=O)O", "note": "[Leu]", "values": [
      {"measurement": "DEER EPR distance distributions", "setting": "LeuT [1]", "value": "Na^+/Leu resets the IC gate to the IO conformation"},
      {"measurement": "DEER EPR distance distributions", "setting": "LeuT [2]", "value": "Leu binding to Na^+-bound LeuT restores the conformational preference to the OO form"}
    ]},
    {"molecule": "NCCc1ccc(O)c(O)c1", "note": "[dopamine]", "values": [
      {"measurement": "[3H]DA uptake, intact fly brains", "setting": "dDAT", "value": "uptake of [^3H]DA in hDAT WT Drosophila brains was not significantly different from that measured in dDAT"}
    ]},
    {"molecule": "C[C@H](N)C(=O)O", "note": "[L-Ala]", "values": [
      {"measurement": "X-ray crystal structure, 2.1 A", "setting": "LeuT [3]", "value": "L-Ala, Na1, and Na2 (purple spheres) could be modeled into their respective binding sites"},
      {"measurement": "X-ray crystal structure, 2.1 A", "setting": "LeuT [4]", "value": "LeuT WT, LeuT R375A, and LeuT R375D solved in the L-Ala and Na^+ bound OO conformation"},
      {"measurement": "X-ray crystal structure, 2.6 A", "setting": "LeuT [5]", "value": "LeuT WT, LeuT R375A, and LeuT R375D solved in the L-Ala and Na^+ bound OO conformation"}
    ]},
    {"molecule": "B1", "values": [
      {"measurement": "Km", "setting": "[6]", "value": "5.7 ± 1.4", "unit": "µM"}
    ]},
    {"molecule": "B2", "values": [
      {"measurement": "Km", "setting": "[6]", "value": "0.10 ± 0.07", "unit": "µM"}
    ]}
  ]
}
